Laboratory results reported in patent publication US20260317324A1, “BIFUNCTIONAL COMPOUNDS FOR DEGRADING BRAF VIA UBIQUITIN PROTEOSOME PATHWAY” (Nurix Therapeutics, Inc., priority 2023, published 2026).

Experiments:
Format in all cases: cell-based
BRAF G469A = molecular target: T1, BRAF G469A (Homo sapiens, UniProt P15056, G469A); experiment: BRAF HiBiT degradation assay, C-terminal HiBiT-tagged BRAF G469A overexpressed in HCT-116 BRAF−/− cells (clone 34), Nano-Glo HiBiT Lytic assay
T1 construct: Horizon Discovery (HCT-116 BRAF−/− cells); host or cells: HCT-116 BRAF−/− cells, clone 34, lentiviral transduction
T1 sequence (P15056 whole entry G469A): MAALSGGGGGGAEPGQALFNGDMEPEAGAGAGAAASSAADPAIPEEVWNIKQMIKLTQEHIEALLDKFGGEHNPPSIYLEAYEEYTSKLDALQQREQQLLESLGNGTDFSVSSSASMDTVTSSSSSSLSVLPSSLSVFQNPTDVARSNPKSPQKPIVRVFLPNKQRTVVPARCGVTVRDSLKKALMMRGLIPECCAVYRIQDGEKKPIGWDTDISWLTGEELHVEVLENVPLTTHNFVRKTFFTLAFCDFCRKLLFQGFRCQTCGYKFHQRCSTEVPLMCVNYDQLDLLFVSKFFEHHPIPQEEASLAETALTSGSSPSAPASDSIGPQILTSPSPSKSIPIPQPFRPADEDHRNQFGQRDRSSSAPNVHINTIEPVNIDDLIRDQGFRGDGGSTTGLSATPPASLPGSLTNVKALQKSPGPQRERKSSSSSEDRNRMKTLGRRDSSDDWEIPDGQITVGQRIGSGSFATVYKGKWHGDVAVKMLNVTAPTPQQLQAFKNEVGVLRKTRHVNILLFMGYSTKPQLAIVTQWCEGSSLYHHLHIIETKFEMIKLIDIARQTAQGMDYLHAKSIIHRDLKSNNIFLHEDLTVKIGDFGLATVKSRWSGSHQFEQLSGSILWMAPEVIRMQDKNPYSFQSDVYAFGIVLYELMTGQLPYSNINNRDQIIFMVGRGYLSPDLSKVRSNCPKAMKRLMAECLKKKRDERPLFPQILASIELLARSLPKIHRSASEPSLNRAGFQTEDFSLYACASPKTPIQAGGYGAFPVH
In short: (§1)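 First, the stable HiBiT-tagged cells were plated and incubated for 24 h. Next, compound was added in duplicate as an 11-point series with a 1 μM top concentration. Lytic detection followed, with DMSO-treated parental cells used for background. Finally, DC50 and Obs. Dmax relative to DMSO were derived from the % protein remaining curves.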

BRAF D594G = molecular target: T2, BRAF D594G (Homo sapiens, UniProt P15056, D594G); experiment: BRAF HiBiT degradation assay, C-terminal HiBiT-tagged BRAF D594G overexpressed in HCT-116 BRAF−/− cells (clone 63), Nano-Glo HiBiT Lytic assay
T2 construct: Horizon Discovery (HCT-116 BRAF−/− cells); host or cells: HCT-116 BRAF−/− cells, clone 63, lentiviral transduction
T2 sequence (P15056 whole entry D594G): as the sequence (P15056 whole entry G469A) above, with A469G, D594G counted along it
In short: as §1

BRAF G466V = molecular target: T3, BRAF G466V (Homo sapiens, UniProt P15056, G466V); experiment: BRAF HiBiT degradation assay, C-terminal HiBiT-tagged BRAF G466V overexpressed in HCT-116 BRAF−/− cells (clone 8), Nano-Glo HiBiT Lytic assay
T3 construct: Horizon Discovery (HCT-116 BRAF−/− cells); host or cells: HCT-116 BRAF−/− cells, clone 8, lentiviral transduction
T3 sequence (P15056 whole entry G466V): as the sequence (P15056 whole entry G469A) above, with G466V, A469G counted along it
In short: as §1

BRAF V600E = molecular target: T4, BRAF V600E (Homo sapiens, UniProt P15056, V600E); experiment: BRAF HiBiT degradation assay, C-terminal HiBiT-tagged BRAF V600E A375 cells (clone 1F10), Nano-Glo HiBiT Lytic assay; settings: for Dmax: A-375
T4 construct: endogenous C-terminal HiBiT fusion tag on BRAF V600E allele; endogenous in cells; host or cells: A375 clone 1F10 (CRISPR-Cas9 knock-in of the HiBiT tag; parental A375 from ATCC)
T4 sequence (P15056 whole entry V600E, the tested form may be a part): as the sequence (P15056 whole entry G469A) above, with A469G, V600E counted along it
In short: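 Degradation is measured as loss of HiBiT signal from BRAF V600E tagged at its native locus in A375 cells. Doses span 1 μM to 0.01 nM in half-log steps, in duplicate. Percent remaining is calculated against DMSO controls after subtracting untagged A375 background, and curve fitting yields DC50 and observed Dmax.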

[1] = BRAF G469A (Class 2), HCT-116 BRAF−/− cells, DC50 at 50% degradation
[2] = BRAF G469A (Class 2), HCT-116 BRAF−/− cells, observed Dmax relative to DMSO control
[3] = BRAF D594G (Class 3), HCT-116 BRAF−/− cells, DC50 at 50% degradation
[4] = BRAF D594G (Class 3), HCT-116 BRAF−/− cells, observed Dmax relative to DMSO control
[5] = BRAF G466V (Class 3), HCT-116 BRAF−/− cells, DC50 at 50% degradation
[6] = BRAF G466V (Class 3), HCT-116 BRAF−/− cells, observed Dmax relative to DMSO control
[7] = A375 (BRAF V600E, Class 1), DC50 at 50% degradation
[8] = A375 (BRAF V600E, Class 1), observed Dmax, % protein degraded relative to DMSO control
[9] = Class 2, BRAF G469A, DC50 at 50%: fitted conc. at Y=50
[10] = HCT-116, Class 2, BRAF G469A, percentage protein degraded at maximal compound effect relative to DMSO
[11] = BRAF D594G, DC50 at 50%: fitted conc. at Y=50
[12] = HCT-116, BRAF D594G, percentage protein degraded at maximal compound effect relative to DMSO
[13] = BRAF G466V, DC50 at 50%: fitted conc. at Y=50
[14] = HCT-116, BRAF G466V, percentage protein degraded at maximal compound effect relative to DMSO
[15] = A375 (BRAF V600E), DC50 at 50%: fitted conc. at Y=50
[16] = A375 (BRAF V600E), percentage protein degraded at maximal compound effect relative to DMSO

SMILES	DC50 (BRAF G469A; [1])	Dmax (BRAF G469A; [2])	DC50 (BRAF D594G; [3])	Dmax (BRAF D594G; [4])	DC50 (BRAF G466V; [5])	Dmax (BRAF G466V; [6])	DC50 (BRAF V600E; [7])	Dmax (BRAF V600E; [8])	DC50 (BRAF G469A; [9])	Dmax (BRAF G469A; [10])	DC50 (BRAF D594G; [11])	Dmax (BRAF D594G; [12])	DC50 (BRAF G466V; [13])	Dmax (BRAF G466V; [14])	DC50 (BRAF V600E; [15])	Dmax (BRAF V600E; [16])
O=C1CC[C@H](c2ccc(N3CCC(CN4CCN(c5ccc(-n6cc(-c7cc(Cl)cc(NS(=O)(=O)N8CCCC8)c7F)c(-c7ccncc7)n6)nc5)CC4)CC3)cc2)C(=O)N1 [Compound 286, N-{5-chloro-3-[1-(5-{4-[(1-{4-[(3R)-2,6-dioxopiperidin-3-yl]phenyl}piperidin-4-yl)methyl]piperazin-1-yl}pyridin-2-yl)-3-(pyridin-4-yl)-1H-pyrazol-4-yl]-2-fluorophenyl}pyrrolidine-1-sulfonamide]	10 to 50 nM	30 to 70%	< 10 nM	> 70%	< 10 nM	> 70%	< 10 nM	> 70%	–	–	–	–	–	–	–	–
CCN(C)S(=O)(=O)Nc1cccc(-c2nc(C(C)(C)C)sc2-c2ccnc(Nc3ccc(N4CCN(C(=O)[C@H]5CC[C@H](CN6CCc7cc(C8CCC(=O)NC8=O)ccc7C6)CC5)CC4)cn3)n2)c1F (mixture of isomers) [Compound 125, Rac-(3S)-3-(2-{[(1r,4r)-4-{4-[6-({4-[2-tert-butyl-4-(3-{[ethyl(methyl)sulfamoyl]amino}-2-fluorophenyl)-1,3-thiazol-5-yl]pyrimidin-2-yl}amino)pyridin-3-yl]piperazine-1-carbonyl}cyclohexyl]methyl}-1,2,3,4-tetrahydroisoquinolin-6-yl)piperidine-2,6-dione]	–	–	–	–	–	–	–	–	> 500 nM	30 to 70%	> 500 nM	< 30%	> 500 nM	< 30%	10 to 50 nM	> 70%
O=C1CC[C@H](c2ccc(N3CCC(CN4CCN(c5cc(F)c(-n6cc(-c7cc(Cl)cc(NS(=O)(=O)N8CCCC8)c7F)c(-c7ccncc7)n6)cc5F)CC4)CC3)cc2)C(=O)N1 [Compound 353, N-{5-chloro-3-[1-(4-{4-[(1-{4-[(3R)-2,6-dioxopiperidin-3-yl]phenyl}piperidin-4-yl)methyl]piperazin-1-yl}-2,5-difluorophenyl)-3-(pyridin-4-yl)-1H-pyrazol-4-yl]-2-fluorophenyl}pyrrolidine-1-sulfonamide]	< 10 nM	> 70%	< 10 nM	> 70%	< 10 nM	> 70%	< 10 nM	> 70%	–	–	–	–	–	–	–	–
CCN(C)S(=O)(=O)Nc1cc(Cl)cc(-c2cn(-c3ccc(N4CCN(CC5CCN(c6ccc(C7CCC(=O)NC7=O)cn6)CC5)CC4)cn3)nc2-c2ccncc2)c1F (racemic) [Compound 312, Rac-(3R)-3-(6-{4-[(4-{6-[4-(5-chloro-3-{[ethyl(methyl)sulfamoyl]amino}-2-fluorophenyl)-3-(pyridin-4-yl)-1H-pyrazol-1-yl]pyridin-3-yl}piperazin-1-yl)methyl]piperidin-1-yl}pyridin-3-yl)piperidine-2,6-dione]	< 10 nM	30 to 70%	< 10 nM	> 70%	< 10 nM	> 70%	< 10 nM	> 70%	–	–	–	–	–	–	–	–
CCCS(=O)(=O)Nc1cccc(-c2cn(-c3ccc(N4CCN(CC5CCN(c6ccc([C@H]7CCC(=O)NC7=O)cc6)CC5)[C@H](C)C4)cc3)nc2-c2ccncc2)c1F [Compound 378, N-[3-(1-{4-[(3R)-4-[(1-{4-[(3R)-2,6-dioxopiperidin-3-yl]phenyl}piperidin-4-yl)methyl]-3-methylpiperazin-1-yl]phenyl}-3-(pyridin-4-yl)-1H-pyrazol-4-yl)-2-fluorophenyl]propane-1-sulfonamide]	> 500 nM	30 to 70%	> 500 nM	30 to 70%	10 to 50 nM	30 to 70%	10 to 50 nM	> 70%	–	–	–	–	–	–	–	–
CCCS(=O)(=O)Nc1cc(Cl)cc(-c2cn(-c3ccc(N4CCN(CC5CCN(c6ccc(C7CCC(=O)NC7=O)cn6)CC5)[C@H](C)C4)cc3)nc2-c2ccncc2)c1F (mixture of isomers) [Compound 276, N-[5-chloro-3-(1-{4-[(3R)-4-[(1-{5-[(3RS)-2,6-dioxopiperidin-3-yl]pyridin-2-yl}piperidin-4-yl)methyl]-3-methylpiperazin-1-yl]phenyl}-3-(pyridin-4-yl)-1H-pyrazol-4-yl)-2-fluorophenyl]propane-1-sulfonamide]	< 10 nM	> 70%	< 10 nM	30 to 70%	< 10 nM	> 70%	< 10 nM	> 70%	–	–	–	–	–	–	–	–
CCC(C)S(=O)(=O)Nc1cc(Cl)cc(-c2cn(-c3ccc(N4CCN(CC5CCN(c6ccc([C@H]7CCC(=O)NC7=O)cc6)CC5)CC4)cc3)nc2-c2ccncc2)c1F (mixture of isomers) [Compound 330, (2RS)—N-{5-chloro-3-[1-(4-{4-[(1-{4-[(3R)-2,6-dioxopiperidin-3-yl]phenyl}piperidin-4-yl)methyl]piperazin-1-yl}phenyl)-3-(pyridin-4-yl)-1H-pyrazol-4-yl]-2-fluorophenyl}butane-2-sulfonamide]	10 to 50 nM	30 to 70%	< 10 nM	30 to 70%	< 10 nM	> 70%	< 10 nM	> 70%	–	–	–	–	–	–	–	–
CCCS(=O)(=O)Nc1cccc(-c2nc(C(C)(C)C)sc2-c2ccnc(Nc3ccc(N4CCN(C(=O)C5CCN(c6ccc(C7CCC(=O)NC7=O)cc6)CC5)CC4)cc3)n2)c1F (racemic) [Compound 38, Rac-N-(3-{2-tert-butyl-5-[2-({4-[4-(1-{4-[(3R)-2,6-dioxopiperidin-3-yl]phenyl}piperidine-4-carbonyl)piperazin-1-yl]phenyl}amino)pyrimidin-4-yl]-1,3-thiazol-4-yl}-2-fluorophenyl)propane-1-sulfonamide]	–	–	–	–	–	–	–	–	10 to 50 nM	< 30%	> 500 nM	30 to 70%	> 500 nM	< 30%	< 10 nM	> 70%
CCCS(=O)(=O)Nc1cccc(-c2nc(C(C)(C)C)sc2-c2ccnc(Nc3cccc(C4CCN(CC[C@@H]5CCN(c6ccc(C7CCC(=O)NC7=O)cn6)C5)CC4)c3)n2)c1F (mixture of isomers) [Compound 75, N-{3-[2-tert-butyl-5-(2-{[3-(1-{2-[(3R)-1-{5-[(3RS)-2,6-dioxopiperidin-3-yl]pyridin-2-yl}pyrrolidin-3-yl]ethyl}piperidin-4-yl)phenyl]amino}pyrimidin-4-yl)-1,3-thiazol-4-yl]-2-fluorophenyl}propane-1-sulfonamide]	–	–	–	–	–	–	–	–	> 500 nM	< 30%	> 500 nM	< 30%	> 500 nM	< 30%	10 to 50 nM	> 70%
CCCS(=O)(=O)Nc1cccc(-c2cn(-c3ccc(N4CCN(CC5CCN(c6ccc([C@@H]7CCC(=O)NC7=O)cc6)CC5)CC4)cc3)nc2-c2ccncc2)c1F [Compound 10, N-{3-[1-(4-{4-[(1-{4-[(3S)-2,6-dioxopiperidin-3-yl]phenyl}piperidin-4-yl)methyl]piperazin-1-yl}phenyl)-3-(pyridin-4-yl)-1H-pyrazol-4-yl]-2-fluorophenyl}propane-1-sulfonamide]	–	–	–	–	–	–	–	–	> 500 nM	30 to 70%	> 500 nM	30 to 70%	10 to 50 nM	30 to 70%	10 to 50 nM	> 70%
